Results from patent US20230165888A1, “OLIGONUCLEOTIDE HAVING ANTI-INFLAMMATORY ACTIVITY” (priority 2019, published 2023).

Legend:
Format in all cases: cell-based
[1] = system: BV2 cells, a mouse microglia cell line; test: NO production in BV2 microglia stimulated with LPS + interferon-gamma; settings: LPS 100 ng/ml + interferon-gamma 50 unit/ml, oligonucleotide after 2 hours, FIG. 4
[2] = system: BV2 cells, a mouse microglia cell line; test: Pro-inflammatory cytokine gene expression in BV2 microglia (PCR); settings: LPS 100 ng/ml + interferon-gamma 50 unit/ml, FIG. 5
Procedure: The expression amount of cytokines was confirmed by measuring the expression level of cytokine genes in the BV2 cells using conventional PCR analysis, and the specific method is as follows. Total ribonucleic acid (RNA) was extracted from the treated cells using a TRIZOL reagent (Invitrogen, Carlsbad, Calif., United States). Reverse transcription (RT) was carried out using Superscript II reverse transcriptase (Invitrogen) and oligo (dT) primers. PCR amplification was carried out in a C1000 Touch Thermal Cycler (Bio-Rad, Richmond, Calif., United States) at an annealing temperature of 55-60° C. in 25-32 cycles using specific primer sets. The PCR product having ethidium bromide was electrophoresed on a 1% agarose gel and irradiated with ultraviolet rays to observe bands.

mouse primary astrocytes [3] = test: NO production in mouse primary astrocytes stimulated with LPS + interferon-gamma; settings: LPS 100 ng/ml + interferon-gamma 50 unit/ml, oligonucleotide after 2 hours, FIG. 6
Procedure: (§1) The prepared astrocytes were treated with LPS (100 ng/ml)+interferon-gamma (50 unit/ml) for inflammatory stimulation, and allowed to stand for 2 hours, and then treated with the oligonucleotide (15 bp Oligo25, SEQ ID NO: 11) to confirm the amount of NO produced and the expression amount of cytokines.

mouse primary astrocytes [4] = test: Cytokine gene expression in mouse primary astrocytes (PCR); settings: LPS 100 ng/ml + interferon-gamma 50 unit/ml, FIG. 7
Procedure: as §1
The expression amount of cytokines was confirmed by measuring the expression level of the cytokine genes using the conventional PCR analysis described in Example 5 above, and the concentration of cytokine proteins in the cell culture using Western blotting.

[5] = system: mouse primary chondrocytes; test: Osteoarthritis marker gene expression in IL-1β-treated mouse primary chondrocytes (real-time PCR); settings: oligonucleotide 10 ng/mL 2 hours, then IL-1β 6 hours, FIG. 8

## AGG GAG GGA GGG AGG (DNA AGGGAGGGAGGGAGG; listed as DNA, chemistry not given here) [15 bp Oligo25, 15 bp oligonucleotide with ratio of adenosine and guanosine 1:3]
[1]
  NO production: NO production was reduced in proportion to the treatment concentration
[2]
  expression level of IL-1β gene: significantly reduced
  expression level of IL-6 gene: significantly reduced
  expression level of TNF-α gene: significantly reduced
Mouse primary astrocytes [3]
  NO production: NO production was reduced in proportion to the treatment concentration
Mouse primary astrocytes [4]
  expression level of IL-1β gene: significantly reduced
  expression level of IL-6 gene: significantly reduced
  expression level of TNF-α gene: significantly reduced
  expression level of anti-inflammatory cytokine IL-10 gene: significantly increased
[5]
  expression level of ADAMTS5 gene: increased
  expression level of MMP3 gene: reduced
  expression level of MMP9 gene: reduced
  expression level of MMP12 gene: reduced
  expression level of MMP13 gene: reduced
